How the values were obtained:
Assay type in all cases: cell-based, human
Huh7 cells [1] = experiment: Western blotting of cyclin and CDK proteins in Huh7 cells
Procedure: (§1) Normal human primary hepatocytes isolated from healthy adults (no known history of HCC) in suspension or freshly-frozen prior to shipment (Cryoport Systems, CA) were purchased from Triangle Research Labs, NC. Fresh hepatocytes were plated on collagen-coated tissue culture plates or glass coverslips in Williams E complete media with additives (10% fetal bovine serum, 2 mM glutamine, […] insulin, 4 ng/ml glucagon, […] transferrin, 2.5 ng/ml sodium selenite, 10,000 U/ml penicillin, […] streptomycin, 50 g/ml gentamycin) for 3 h to ensure hepatocyte adherence to plates. Subsequently, hepatocytes were maintained in Williams E minimal media free from serum and growth factors for 24 h prior to treatment. Human hepatocellular carcinoma derived Huh7, and Hep3B, were cultured in Minimum Essential Medium Eagle (MEM); SNU-387 was cultured in Roswell Park Memorial Institute (RPMI) medium and PLC/PRF/5 cultured in Dulbecco's Modified Eagle's medium (DMEM). All maintenance culture media were supplemented with 10% fetal bovine serum (FBS), L-Glutamine (2 mM), penicillin (100 units/ml) and streptomycin ([…]) at 37° C. and 5% CO2. Cells were maintained in serum free media (containing 2 mM L-Glutamine, 100 units/ml penicillin and ([…])) streptomycin for 24 h prior to treatment.
Total protein extracts were obtained by homogenizing cells in total lysis buffer (50 mM Tris-HCl, pH 7.5, 0.5 M NaCl, 2 mM EGTA, 2 mM EDTA, 1.0% Triton X-100, 0.25% Deoxycholate, 1 m/ml pepstatin, 1.0 m/ml leupeptin, 1.0 m/ml aprotinin, 1.0 mM phenylmethylsulfonyl fluoride, 1.0 mM Dithiothreitol, 2.0 mM activated Na3VO4, and 2.0 mM NaF) and centrifuging at 14,000 rpm for 10 min (4° C.). Equal amounts of total proteins as determined by BCA protein Assay (Pierce, Rockford, Ill.) were analyzed by Western blotting. Blots were probed with antibody specific for a-tubulin or GAPDH to ensure equal loading of proteins in each lane.

Huh7 cells [2] = experiment: Western blotting for hippo pathway phosphorylation (Mst1/2, LATS, Yap) in Huh7 cells
Procedure: Total protein extracts were obtained by homogenizing cells in total lysis buffer and analyzed by Western blotting as described recently (Oncotarget 2015; 6:41162-41179). […] Therefore, Applicants performed in vitro studies to test whether activation of P2 purinergic receptors may affect the hippo pathway and its downstream effectors. Huh7 cells—human derived hepatocellular carcinoma cells—maintained in serum free media for 24 hours—were treated with P2 purinergic receptor agonists. […] ADP treatment alone was also sufficient to induce LATs phosphorylation (2 h-1.7 fold, 4 h-1.5 fold) (FIG. 20B). […] Hippo kinases Mst1/2 and Lats1/2 work through a phosphorylation cascade to phosphorylate Yap, thereby retaining Yap in the cytoplasm. In spite of nucleotide-mediated Mst1/2 and Lats phosphorylation, ATP, ADP and ATPγS treatment was individually insufficient to induce Yap phosphorylation. […] Similarly, ATP treatment alone increased nuclear YAP protein expression (1.7 fold) (FIG. 20D).

Huh7 cells [3] = experiment: BrdU incorporation (proliferation) in Huh7 cells; conditions: nucleotide 100 μM
Procedure: To determine whether P2 purinergic receptor activation influences HCC cell proliferation, BrdU incorporation was assessed in HCC cells maintained in SFM for 24 hours and treated with ATP for 24 hours. ATP treatment alone was sufficient to induce proliferation in each of these cell lines (Huh7, 34%; Hep3B, 46%; SNU-387, 47% and PLC/PRF/5, 24%), identifying nucleotides as liver cancer cell mitogens (FIG. 7A).
Extracellular ATP can be hydrolyzed to ADP and adenosine by ectonucleotidases at the plasma membrane. Therefore, Applicants tested the effects of ATPγS (non-hydrolyzable analog of ATP) or ADP (break down product of ATP) (100 μM) on Huh7 cell proliferation. ATPγS treatment alone was sufficient to induce BrdU incorporation as early as 12 hours (42%); maintained at 18 h (30%) and 24 h (29%) in Huh7 cells (FIG. 8). ADP was also able to independently increase the number of BrdU positive nuclei (12 h, 30%; 18 h, 35%; 24 h, 37%) (FIG. 8). Furthermore, ATP treatment (18 h) increased cell proliferation and viability in all four cell lines, as determined by MTT assay (Huh7, 65%; Hep3B, 81%; SNU-387, 90% and PLC/PRF/5, 43%) (FIG. 7B).
as §1
Formalin-fixed and paraffin embedded liver sections from HCC patients were analyzed by immunohistochemistry with anti-P2X3 antibody (Abcam, Cambridge, Mass.). HCC cells were grown on glass coverslips; BrdU (10 μM, Roche, Indianapolis, Ind.) was added to culture media for 1 h prior to fixation (cold acetone:methanol, 1:1) and stained using anti-BrdU antibody (DAKO, Carpinteria, Calif.) and DAB Peroxidase Substrate Kit (Vector Labs, Burlingame, Calif.), according to manufacturer's instructions. Counterstaining was done with hematoxylin. BrdU positive cells were counted and expressed as a percentage of the total number of cells in ten randomly selected high-power fields (20×) per coverslips.

Huh7 cells [4] = experiment: qRT-PCR of cyclin mRNA in Huh7 cells
Procedure: Normal human primary hepatocytes isolated from healthy adults (no known history of HCC) in suspension or freshly-frozen prior to shipment (Cryoport Systems, CA) were purchased from Triangle Research Labs, NC. Fresh hepatocytes were plated on collagen-coated tissue culture plates or glass coverslips in Williams E complete media with additives (10% fetal bovine serum, 2 mM glutamine, […] insulin, 4 ng/ml glucagon, […] transferrin, 2.5 ng/ml sodium selenite, 10,000 U/ml penicillin, […] streptomycin, 50 g/ml gentamycin) for 3 h to ensure hepatocyte adherence to plates. Subsequently, hepatocytes were maintained in Williams E minimal media free from serum and growth factors for 24 h prior to treatment. Human hepatocellular carcinoma derived Huh7, and Hep3B, were cultured in Minimum Essential Medium Eagle (MEM); SNU-387 was cultured in Roswell Park Memorial Institute (RPMI) medium and PLC/PRF/5 cultured in Dulbecco's Modified Eagle's medium (DMEM). All maintenance culture media were supplemented with 10% fetal bovine serum (FBS), L-Glutamine (2 mM), penicillin (100 units/ml) and streptomycin ([…]) at 37° C. and 5% CO2. Cells were maintained in serum free media (containing 2 mM L-Glutamine, 100 units/ml penicillin and ([…])) streptomycin for 24 h prior to treatment. Total RNA was isolated from human livers or cells using Trizol Reagent according to manufacturer's instructions (Invitrogen, NY). Complementary DNA (cDNA) synthesis was performed by reverse transcription of total RNA (2 μg) with high capacity cDNA reverse transcription kit (Applied Biosystems, Foster city, CA). The cDNA product was amplified by qRT-PCR in Step One Plus Real-Time PCR system using SYBR Green PCR Master Mix (Applied Biosystems, Grand Island, N.Y.). Quantitative expression values were determined using the […] as specified by manufacturers using GAPDH as a control.

Huh7 cells [5] = experiment: qRT-PCR of YAP target genes in Huh7 cells
From the text: Total RNA was isolated from human livers or cells and was amplified by qRT-PCR as described recently (Oncotarget 2015; 6:41162-41179). Next, Applicants tested whether extracellular nucleotide treatment may have an effect on YAP target genes important in hepatocellular carcinoma. […] Moreover, P2X3 antagonist (AF-353) pretreatment attenuated ATP mediated induction of survivin (FIG. 20G).

## O=C(O)c1cc(C(=O)O)c(C(=O)N(Cc2cccc(Oc3ccccc3)c2)[C@H]2CCCc3ccccc32)cc1C(=O)O [A317491]
Huh7 cells [1]; A317491 30 μM pre-treatment, ATP 24 h
  effect on ATP induced cyclin D3 expression: attenuated

## CSc1nc(N)c2ncn([C@@H]3O[C@H](COP(=O)(O)OP(=O)(O)OP(=O)(O)O)[C@@H](O)[C@H]3O)c2n1 [2-MeSATP]
Huh7 cells [1]; 2MeSATP 50 μM alone, 24 h
  cyclin D3 expression: 1.9 fold

## O=c1ccn([C@@H]2O[C@H](COP(=O)(O)OP(=O)(O)OP(=O)(O)O)[C@@H](O)[C@H]2O)c(=O)[nH]1 [UTP]
Huh7 cells [2]; Huh7, serum free 24 hours, as early as 5 minutes, sustained at 4 hours
  Mst1/2 phosphorylation: significantly induced

## Nc1ncnc2c1ncn2[C@@H]1O[C@H](COP(=O)(O)OP(=O)(O)O)[C@@H](O)[C@H]1O [ADP]
Huh7 cells [3]; 12 h
  BrdU incorporation / BrdU positive nuclei: 30%
Huh7 cells [3]; 18 h
  BrdU incorporation / BrdU positive nuclei: 35%
Huh7 cells [3]; 24 h
  BrdU incorporation / BrdU positive nuclei: 37%
Huh7 cells [4]; 12 h treatment
  Cyclin D3 mRNA expression vs untreated cells: 2.7 fold
Huh7 cells [4]; 36 h treatment
  Cyclin D3 mRNA expression vs untreated cells: 2.8 fold
Huh7 cells [2]; Huh7, 12 h treatment
  Yap phosphorylation: 0.2 fold
  induction of Yap phosphorylation: insufficient
Huh7 cells [5]; 24 h treatment
  AREG gene expression: 2.6 fold
  CTGF gene expression: 2.5 fold
  Sox9 gene expression: 1.4 fold
  cyclin E gene expression: 2.4 fold
  survivin gene expression: 1.4 fold

## Cc1nc(N=Nc2ccc(S(=O)(=O)O)cc2S(=O)(=O)O)c(COP(=O)(O)O)c(C=O)c1O [PPADS]
Huh7 cells [5]; ATPγS ± PPADS, 24 h
  effect on ATPγS-induced AREG and CTGF expression: completely attenuated

## Cc1ccc(C(=O)Nc2ccc(S(=O)(=O)O)c3cc(S(=O)(=O)O)cc(S(=O)(=O)O)c23)cc1NC(=O)c1cccc(NC(=O)Nc2cccc(C(=O)Nc3cc(C(=O)Nc4ccc(S(=O)(=O)O)c5cc(S(=O)(=O)O)cc(S(=O)(=O)O)c45)ccc3C)c2)c1 [Suramin]
Huh7 cells [4]; Suramin pre-treatment (30 minutes) before 24 hours nucleotide treatment
  effect on nucleotide induction of cyclin D3 mRNA: dose dependent attenuation
Huh7 cells [4]; Suramin treatment alone
  effect on baseline cyclin D3 expression: reduced
